Laboratory results reported in article PMC3604156 (Transplantation, 2013).
Like-named read-outs stand apart in the source and are kept apart here.

Tests used:
[1] = assay type: in vivo, human; conditions: expressors vs nonexpressors
[2] = assay type: in vivo, human; conditions: for AUC0–inf: whole blood, single oral 5 mg/kg CsA, mean ± SD

SMILES: CC[C@@H]1NC(=O)[C@H]([C@H](O)[C@H](C)C/C=C/CO)N(C)C(=O)[C@H](C(C)C)N(C)C(=O)[C@H](CC(C)C)N(C)C(=O)[C@H](CC(C)(C)O)N(C)C(=O)[C@@H](C)NC(=O)[C@H](C)NC(=O)[C@H](CC(C)C)N(C)C(=O)[C@H](C(C)C)NC(=O)[C@H](CC(C)C)N(C)C(=O)CN(C)C1=O [AM19]
- average cumulative amount excreted in urine, higher in CYP3A5 expressors compared to nonexpressors [1]: 48%
- AUCAM19/AUCAM1 ratio, higher in CYP3A5 expressors compared to nonexpressors ([2]; expressors vs nonexpressors): 46.9%
- average blood AUC, higher in CYP3A5 expressors compared to nonexpressors ([2]; expressors vs nonexpressors): 47.4%
- AUC0–inf ([2]; CYP3A5 expressors (n=12)): 1360 ± 602 ng·h/mL
- AUC0–inf ([2]; CYP3A5 nonexpressors (n=12)): 923 ± 343 ng·h/mL
